Data set [1] relates to vS1-vM1 circuit (wEPs in vM1). Put plainly: Whisker-evoked potentials (wEPs) in vM1 after delivery to vS1 in anesthetized rats. The class given is in vivo, rat. As to the method:
The AU-FUS sequence [AU-FUS (in vivo); see Table 1] was tested in vivo by manipulating a specific cortical network without opening the BBB. Rat vibrissa motor cortex (vM1) receives whisker sensory information (˜80%) through projections from vibrissa sensory cortex (vS1, “Barrel cortex”). When rodent whiskers are mechanically deflected, evoked activity propagates from brainstem via thalamus to vS1, and then to vM1. During simultaneous recordings the peaks of whisker-evoked potentials (wEPs) were observed first in vS1 and ˜3.0 ms later in vM1. It was tested whether inhibiting vS1 by the novel technique would suppress wEPs in vM1 in anesthetized rats. The FUS transducer was positioned above the intact skull and focused on vS1. Using a multielectrode array, the wEPs and the whisker-evoked multi-unit activity in vM1 were monitored online. In parallel, muscimol-loaded UC-carriers were continuously (i.v.) injected. The AU-FUS sequence was applied repeatedly on vS1 to aggregate the UC-carriers and to uncage muscimol. Muscimol is an agonist of ionotropic GABAA receptors, the major receptor responsible for fast inhibitory transmission in the brain, which […] the BBB.
The animal was anesthetized, a small craniotomy was performed over vM1 (TZ region) or V1 for inserting a recording probe 140, and a FUS transducer 136 was positioned on the intact skull above vS1 with the help of stereotaxic coordinates and coupled with sterile ultrasound gel and water collimator.
Muscimol-loaded UC-carriers were injected intravenously through the tail vein using an infusion pump 110. vM1 and V1 recordings were performed on separate cohorts.
Whiskers were cut to around 15 mm length. The 8-12 largest whiskers were inserted into a glass capillary tube which was attached to a piezo actuator (T223-H4CL-503X, Piezo Systems). The piezo actuator was shielded with a custom-made copper cover. The whiskers were deflected with 120 Hz cosine pulses (292 mm/s velocity, displaced 2.34 mm in 8 ms) which were generated in LabView (National Instruments) and converted into an analog signal (DAC NI, USB-6211) which then drove the piezo actuator. Stimulus presentation was synchronized with the electrophysiological recordings with a TTL signal at stimulus onset. Whiskers were continuously stimulated at a repetition rate of 0.3 Hz.
All electrophysiological data were recorded with a RHD2000 system (Intan Technologies) with 30 kS/s sampling rate. All stereotaxic coordinates were determined with respect to bregma. A 32 channel Neuronexus probe (A2x16-10 mm-100-500-177-A32, 15 or 50 μm thick) attached to a motorized 3D arm (StereoDrive-960HD, Neurostar), fixed outside of the stereotaxic frame, was inserted into the vM1 (Coordinates AP: 1-2 mm, ML: 0.5-1 mm, depending on the vasculature, DV: 1.5-2 mm from pia) at 50° to the coronal plane. The probe was initially inserted ˜250-500 μm below the cortical surface. The FUS transducer was integrated with an acoustic collimator which was filled with degassed and deionized water and contained a polystyrene film (McMaster-Carr) at the end. The collimator's shape was designed according to the FUS transducer's geometry so that it would not interfere with the FUS beam. This assembly was stereotaxically positioned such that the FUS focal volume was targeted to vS1 (Coordinates AP: −2.3 mm, ML: 6 mm, DV: 3.3 mm from skull surface) at a 30° angle with respect to the sagittal plane such that the focal volume of FUS beam targeted cortical layers of vS1. […]

Data set [2] concerns VEPs in primary visual cortex (V1). Put plainly: Visually evoked potentials (VEPs) in V1 after delivery to vS1. Type of data set: in vivo, rat. Conditions: muscimol delivered to vS1 using AU-FUS. As to the method: To rule out that the observed modulation of vM1 could be due to spreading of muscimol from vS1, signals were recorded from a cortical area close to vS1 but without significant connectivity with vS1: Muscimol was delivered to vS1 using AU-FUS, and the visually evoked potentials (VEPs) were measured from primary visual cortex (V1). […] V1 and vM1 recordings were done on separate cohorts. The same ultrasound parameters were used for both vS1-vM1 and vS1-V1 paradigms.
The protocol used for vS1-V1 was the same as vS1-vM1 paradigm with the following exceptions: FUS sonication coordinates were changed to AP: −2.3 mm, ML: 6.5 mm, DV: 3.3 mm from skull surface and FUS angle was changed from 30° to 34° to create space for electrode insertion to V1. A more lateral region of vS1 was sonicated to achieve better coupling with skull with the new angling of the FUS transducer. Electrode insertion coordinates were changed for V1 recording to AP: −5.5-6.0 mm, ML: 3.2-3.5 mm, DV: 1.6-2.0 mm to ensure that recording is done from cortical layers of V1. […] Instead of wEPs, VEPs were recorded by visual stimulation. […]
All electrophysiological data analysis was done in Python, version 3.6, using custom scripts. […] For wEP and VEP analysis, moving averages were calculated for a window step size of 180 whisker deflections/visual stimuli (moving step size is 1 deflection/visual stimulus). […]

In data set [3] the test system is brain. Particulars: cited from earlier work.
For data set [4] the following is noted: rat barrel cortex; cited from earlier work.
Where [5] appears, read: i.v., without AU-FUS or UC-carriers.

The text below walks through data of patent publication US20240009436A1, “LOCALIZED […] OF […] […] AGENTS USING FOCUSED ULTRASOUND” (priority 2020, published 2024).

`NCc1cc(=O)[nH]o1` [muscimol]: in data set [1] (free muscimol (250 ng) and vehicle-loaded UC-carriers with AU-FUS (control)), the “change of wEPs in vM1, baseline vs post-treatment” value is given as “No statistically significant changes”. Moreover, in data set [1] (setting [5]), the “systemic muscimol needed for comparable reduction of wEPs” value was “at least 260 μg” and the “systemic muscimol needed for comparable reduction of wEPs, relative to measured payload of the UC-carriers” value is “at least 1300 times”. For the same molecule, the “time of maximum inhibition in vM1” value in data set [1] (muscimol uncaged in vS1 by AU-FUS) is no more than 20 min. For the same molecule, the “change of wEPs in vM1, baseline vs post-treatment” value in data set [1] (systemic injection of free muscimol (250 ng) with AU-FUS (control)) is reported as “No statistically significant changes”. Further, the “change of VEPs recorded from V1” value in data set [2] is on record as “No statistically significant changes”. Besides, in data set [3], the “amount of systemic muscimol required for brain inactivation” value is listed as roughly 1.6 mg/kg. In addition, the “diffusion coefficient D” value in data set [4] was 8.7×10^−6 cm^2 s^−1.
